For 39 compounds, IC50 results are on record in PubChem BioAssay AID1159564 (GlaxoSmithKline (GSK), 2015).

This assay deals with L. donovani-infected THP-1 macrophages, intracellular amastigote imaging. The assay is described as follows: antileishmanial activity in infected THP-1 macrophages – imaging, THP-1 host macrophages, host toxicity (AID 1159564).
The mark [1] stands for this setting: measured here: THP-1 host cell toxicity.
[2] abbreviates: measured here: amastigotes per macrophage.

Molecules are shown by their SMILES. pIC50: −log10 of the molar value. Active and inactive are the calls of the source. How the calls were made is not given here.

The term pIC50 denotes the IC50 on a negative log10 scale, so that one unit is a factor of ten. As for `CN1CCN(c2nc(-c3ccc(Cl)cc3)c3c(N)n(C)nc3n2)CC1`, the pIC50 was 4.40. Further, under setting [1], the pIC50 was 4.40. Moreover, under setting [2], the pIC50 is 4.49.

In general, IC50 refers to the concentration needed to halve the response being measured. With `Cc1ccc2nc(N(Cc3cccnc3)C(=O)CCc3ccccc3)sc2c1`, the IC50 was > 50 µM (inactive). For the same compound, the pIC50 under setting [1] was below 4.30. The same compound showed a pIC50 under setting [2] below 4.30.

For the compound `CN1CCC(N(C)c2nccc(N3CCN(C(=O)c4cccc(-c5cccnc5)c4)CC3)n2)CC1`, the pIC50 is 5.89. Further, under setting [1], the pIC50 was 5.10. In addition, the negative logarithm of the IC50 (pIC50) under setting [2] is 5.89.

In the case of `CNS(=O)(=O)c1ccccc1Nc1nc(Nc2ccnn2C)ncc1Cl`, the pIC50 was 6.20. The pIC50 under setting [1] was 6.49. Under setting [2], the pIC50 is 6.40.

For `CN(C)CCN(C)Cc1ccc(Cl)cc1NS(=O)(=O)c1ccc(Cl)c(Cl)c1`, the pIC50 is 5.20. Besides, under setting [1], the pIC50 was 4.49. Further, under setting [2], the negative logarithm of the IC50 (pIC50) is 5.40.

As to `O=C(CN1CCN(c2ccccn2)CC1)Nc1cc(S(=O)(=O)N2CCCCCC2)ccc1Cl`, the pIC50 is 5.20. Also, the pIC50 under setting [1] is 4.30. Under setting [2], this compound showed a pIC50 of 5.89.

`N#Cc1cccc(Nc2nccc(N3CCC(NS(=O)(=O)c4cccc(C#N)c4)CC3)n2)c1`: the pIC50 is 5.00. For the same compound, the pIC50 under setting [1] is below 4.30. The compound further gave a pIC50 under setting [2] of 5.20.

As for `Cc1nn(-c2nc3ccccc3s2)c2c1C(c1ccc(OCC(N)=O)cc1)SCC(=O)N2` (stereo unspecified), the IC50 is > 50 µM (inactive). Under setting [1], the pIC50 is below 4.30. Also, the pIC50 under setting [2] was below 4.30.

As for `COc1ccc([N+](=O)[O-])cc1NC(=O)c1cc(Cl)ccc1O`, the pIC50 is 5.70. Besides, the pIC50 under setting [1] was 5.00. This compound had a pIC50 under setting [2] of 5.80.

Regarding `COc1ccc(C2CC(c3ccccc3Cl)=NN2C(=O)CNC(=O)C2CCC2)cc1` (stereo unspecified), the IC50 was > 50 µM (inactive). The same compound had a pIC50 under setting [1] below 4.30. This compound also had a pIC50 under setting [2] below 4.30.

`CC(=O)Nc1nc(-c2cc(C)ccc2C)c(C)s1`: the IC50 is > 50 µM (inactive). For the same compound, under setting [1], the pIC50 is below 4.30. Besides, under setting [2], the pIC50 was 4.49.

In the case of `CCc1c(C)nc(-n2nc(C)cc2NC(=O)COc2ccccc2F)[nH]c1=O`, the negative-log IC50 (pIC50) was 5.10. This compound gave a pIC50 under setting [1] of 5.40. The pIC50 under setting [2] was 5.30.

As for `COc1ccc(-c2cnc(NC(=O)c3ccc(F)cc3)n2C)cc1`, the pIC50 was 5.89. For the same compound, under setting [1], the pIC50 is below 4.30. Also, the pIC50 under setting [2] is 6.30.

On to `Nc1nc(-c2ccccn2)nc(-n2nc(-c3ccccc3)cc2N)n1`, for which the pIC50 is 6.10. The same compound showed a pIC50 under setting [1] of 5.00. This compound also had a pIC50 under setting [2] of 6.10.

For `CS(=O)(=O)c1cccc(-c2cnc(N)c3c(-c4ccc(CO)cc4)csc23)c1`, the pIC50 is 5.00. The pIC50 under setting [1] was below 4.30. Also, the pIC50 under setting [2] is 5.10.

`CC1=C(C(=O)Nc2ccc(Cl)cc2)C(c2ccncc2)n2ncc(C(=O)Nc3ccccc3)c2N1` (stereo unspecified): the IC50 is > 50 µM (inactive). Further, the pIC50 under setting [1] was 4.89. The compound also gave a pIC50 under setting [2] below 4.30.

For the compound `Oc1c(-c2n[nH]c(Cc3ccc(Cl)cc3)n2)ncc2cccnc12`, the pIC50 was 5.89. Further, the pIC50 under setting [1] is 4.70. This compound also showed a pIC50 under setting [2] of 6.00.

As to `CCc1cccc(CC)c1-n1c(SCC(=O)NC(=O)NCc2ccco2)nnc1-c1cccnc1`, the IC50 is > 50 µM (inactive). Moreover, under setting [1], the pIC50 was below 4.30. In addition, the pIC50 under setting [2] was below 4.30.

For `O=C(Nc1ccc(Br)cn1)c1ccc(Cn2cnc([N+](=O)[O-])n2)cc1`, the IC50 is > 50 µM (inactive). The pIC50 under setting [1] was below 4.30. Besides, the pIC50 under setting [2] is below 4.30.

As to `CC(C)(C)CC(=O)NCc1noc(COc2ccccc2)n1`, the IC50 was > 50 µM (inactive). Besides, under setting [1], the pIC50 is below 4.30. The same compound had a pIC50 under setting [2] below 4.30.

On to `c1ccc(-c2nc(NC3CCCC3)c3ccccc3n2)nc1`, for which the pIC50 was 5.70. Under setting [1], this compound had a pIC50 of 4.70. Under setting [2], this compound had a pIC50 of 5.89.

As to `CC(C)c1cc(Nc2cc(Cc3ccccc3)nc(NC3CCC(O)CC3)n2)n[nH]1` (stereo unspecified), the pIC50 is 7.20. Besides, the pIC50 under setting [1] is 7.70. The negative-log IC50 (pIC50) under setting [2] was 7.40.

In the case of `CC(=O)Nc1ccc(-c2noc(CC3CCCN(Cc4cccc(F)c4C)C3)n2)cc1` (stereo unspecified), the pIC50 is 4.49. Moreover, the pIC50 under setting [1] is below 4.30. In addition, the pIC50 under setting [2] is 4.89.

`Fc1ccc(OC2CC(NCc3cccc4cn[nH]c34)C2)cc1C(F)(F)F` (stereo unspecified): the negative-log IC50 (pIC50) is 5.10. For the same compound, under setting [1], the pIC50 was 5.00. Further, the pIC50 under setting [2] was 5.10.

Take `O=C(CN(Cc1ccccn1)Cc1ccccn1)NCc1ccc2c(c1)OCO2`: the pIC50 is 5.10. The same compound gave a pIC50 under setting [1] below 4.10. Also, the pIC50 under setting [2] is 5.20.

With `Cc1nc(C(=O)Nc2ccc3c(c2)OCO3)nn1-c1ccc(Cl)cc1`, the pIC50 is 5.70. Under setting [1], this compound gave a pIC50 of 4.89. The compound further had a pIC50 under setting [2] of 5.80.

In the case of `CCN(CC)S(=O)(=O)c1ccc(C(=O)Nc2cc(C)nn2-c2nc(C)c(C)c(=O)[nH]2)cc1`, the IC50 is > 50 µM (inactive). In addition, the pIC50 under setting [1] was 5.49. The compound further gave a pIC50 under setting [2] below 4.30.

Turning to `C[C@@H](Oc1cc(-n2cnc3ccc(C(O)CO)cc32)sc1C(N)=O)c1ccccc1C(F)(F)F` (stereo partly specified), the pIC50 is 4.70. This compound gave a pIC50 under setting [1] of 4.80. Also, the pIC50 under setting [2] is 4.89.

Turning to `COc1ccc(NS(=O)(=O)c2ccc(S(=O)(=O)N(C)C3CCCCC3)cc2)c2ncccc12`, the pIC50 is 6.49. Further, the pIC50 under setting [1] is below 4.30. Under setting [2], the pIC50 was 6.80.

On to `N#Cc1cc([N+](=O)[O-])ccc1NC1CCCCCC1`, for which the IC50 was > 50 µM (inactive). The compound further had a pIC50 under setting [1] below 4.30. The compound also had a pIC50 under setting [2] below 4.30.

Turning to `Cc1ccc(S(C)(=O)=O)cc1Nc1nccc(-c2sc(N)nc2-c2ccccc2)n1`, the pIC50 was 5.30. The compound also had a pIC50 under setting [1] of 4.70. This compound also showed a pIC50 under setting [2] of 5.60.

As for `Cc1ccc2sc(NC(=O)Cn3cnc([N+](=O)[O-])n3)nc2c1`, the IC50 was > 50 µM (inactive). This compound had a pIC50 under setting [1] below 4.30. Under setting [2], the pIC50 is below 4.30.

`Cn1cncc1CN1CCC2(CC1)COC(Cc1ccccc1)C2` (stereo unspecified): the IC50 was > 50 µM (inactive). Under setting [1], the pIC50 was below 4.30.

Consider `CN(Cc1nc2ccccc2s1)C(=O)C=Cc1cc2ccccc2o1`, for which the IC50 was > 50 µM (inactive). The pIC50 under setting [1] was below 4.30. Under setting [2], this compound showed a pIC50 of 4.80.

For `COc1ccc(OC)c(NC(=O)c2ccc([N+](=O)[O-])o2)c1`, the pIC50 is 4.49. Under setting [1], this compound had a pIC50 of 4.70. This compound also gave a pIC50 under setting [2] of 4.80.

On to `COc1ccc(NS(=O)(=O)c2cccc(NC(=O)c3cc(F)cc(F)c3)c2)cc1`, for which the IC50 was > 50 µM (inactive). Under setting [1], this compound had a pIC50 below 4.30. Also, under setting [2], the pIC50 is 4.70.

Regarding `CCOc1ccc(CC(=O)N2c3ccccc3CC2C(=O)NC)cc1` (stereo unspecified), the IC50 was > 50 µM (inactive). For the same compound, the pIC50 under setting [1] is below 4.30. Besides, the pIC50 under setting [2] is below 4.30.

As for `CN(CC1CCCO1)S(=O)(=O)c1ccc(C(=O)Nc2nc(-c3ccccn3)cs2)cc1` (stereo unspecified), the negative-log IC50 (pIC50) is 5.20. For the same compound, under setting [1], the pIC50 was 5.10. This compound showed a pIC50 under setting [2] of 5.49.

Consider `CCCc1nc2nc(N)nc(N)c2cc1CC`, for which the pIC50 is 4.40. Moreover, under setting [1], the pIC50 is below 4.30. This compound showed a pIC50 under setting [2] of 4.40.
